Reference: patent US8557272B2, “Device for local and/or regional delivery employing liquid formulations of therapeutic agents” (Cordis Corporation, priority 2004, dated 2013)
pIC50: −log10 of the molar value.

Assays:
[1] = Drug concentration in liquid formulations (liquid chromatography, HPLC assay); type: physicochemical
[2] = Porcine drug elution PK study of the dual drug eluting coating; type: in vivo; settings: after eight (8) days of implantation; single-layer configuration of FIG. 83
Source text: Another critical parameter for the performance of the thrombus resistance of a device coated with cilostazol is the duration of the drug release from the coating. This is of particular significance in the two weeks after device implantation. In the porcine drug elution PK studies of the dual drug eluting coating, both cilostazol and sirolius were slowly released from the coating, resulting in a sustained drug release profile. The purpose of the porcine PK study is to assess the local pharmacokinetics of a drug eluting stent at a given implantation time. Normally three stents are implanted in three different coronary arteries in a pig for a given time point and then retrieved for total drug recovery analysis. The stents are retrieved at predetermined time points; namely, 1, 3 and 8 days. The stents are extracted and the total amount of drug remaining on the stents is determined by analysis utilizing HPLC (high performance liquid chromatography) for total drug amount. The difference between the original amount of drug on the stent and the amount of drug retrieved at a given time represents the amount of drug released in that period. The continuous release of drug into surrounding arterial tissue is what prevents the neointimal growth and restenosis in the coronary artery. A normal plot represents the percentage of total drug released (%, y-axis) vs. time of implantation (day, x-axis). […]

[3] = Method: The concentrations are determined by liquid chromatography and are presented as weight by volume figures.
In making the first formulation, 100 mg of paclitaxel is added to 400 μl of ethanol in a pre-weighed 20 ml scintillation vial. The mixture of paclitaxel and ethanol is vortexed and heated in a 60 degree C. bath for ten minutes. Once the drug is completely solubilized, 20 ml of PEG 400 is then added to make the final paclitaxel concentration 5 mg/ml. […] In a separate experiment, a series of 20 ml scintillation vials containing Vitamin E TPGS are heated or warmed up in a 50 degree C. water bath for ten minutes. Concurrently, distilled water is also warmed in a 50 degree C. water bath. Once the Vitamin E TPGS was melted in each vial, the distilled water is added into the Vitamin E TPGS vials and vortexed for one minute and left to stand in the water bath for two hours. The final concentrations of Vitamin E TPGS in water were one, five and fifteen percent. The paclitaxel stock solution (5 mg/ml) described herein was then mixed with the Vitamin E TPGS solutions to make the final paclitaxel formulations.

[4] = tested on: human coronary artery smooth muscle cell; assay: MTS assay of Panzem®; type: cell-based; settings: concentrations up to 30,000.00 nanomolar
Source text: Typically, a control is utilized to determine baseline toxicity.

[5] = tested on: human coronary artery smooth muscle cells; assay: Anti-proliferative activity in synchronized cultured human coronary artery smooth muscle cells stimulated with two percent fetal bovine serum; type: cell-based; settings: for effect of the added agent on the anti-proliferative rapamycin dose response curve: agent added to cells treated with rapamycin
Source text: (§1) The multiple curves represent various concentrations of topotecan ranging from zero to three hundred nanomolar concentrations.
(§2) The multiple curves represent various concentrations of etoposide ranging from zero to eight hundred nanomolar concentrations.
The multiple curves represent various concentrations of Panzem® ranging from zero to 100 micromolar concentrations.

[6] = tested on: human coronary artery smooth muscle cells; assay: Antiproliferative effects of PX867 on cultured human coronary artery smooth muscle cells; type: cell-based
Source text: A PI3 kinase inhibitor can affect restinosis when administered by local or systemic delivery alone or in combination with sirolimus. FIGS. 87 and 88 illustrate the antiproliferative effects of PX867 on cultured human coronary artery smooth muscle cells alone (FIG. 87) or in combination with sirolimus (FIG. 88). […] Curve 8702 illustrates the percent inhibition for various concentrations. In FIG. 88, the six curves 8802, 8804, 8806, 8808, 8810 and 8812 represent various concentrations of PX867 with various concentrations of sirolimus. […] More specifically, curve 8812 illustrates the percent inhibition for a 240 nM PX-867 concentration. […] This may be compared to curve 8804 which represents a 15 nM PX-867 concentration. As one can see, the percent inhibition increases as the concentration of sirolimus increases. Accordingly, a potent PI3 kinase inhibitor, such as PX-867, can improve the inhibition of coronary artery smooth muscle cell proliferation either as a stand alone treatment or via combination with another restenotic agent, such as sirolimus.

[7] = tested on: human coronary artery smooth muscle cells; assay: Anti-proliferative activity in non-synchronized cultured human coronary artery smooth muscle cells stimulated with two percent fetal bovine serum; type: cell-based; settings: agent added to cells treated with rapamycin
Source text: The multiple curves represent various concentrations of mycophenolic acid ranging from zero to one thousand nanomolar concentrations.
FIG. 58 illustrates, in graphical format, the anti-proliferative activity of cladribine in non-synchronized cultured human coronary artery smooth muscle cells stimulated with two percent fetal bovine serum.
The multiple curves represent various concentrations of cladribine ranging from zero to nine hundred nanomolar concentrations.

[8] = tested on: human coronary artery smooth muscle cell; assay: Inhibition of human coronary artery smooth muscle cell proliferation by trichostatin A, cell culture; type: cell-based; settings: in vitro cell culture; read-out: anti-proliferative IC50
Source text: FIG. 51 is a graph of the inhibition of coronary artery smooth muscle cells by trichostatin A in a cell culture study.

[9] = tested on: tumor cell lines; settings: Woo et al. 2002; cited from earlier work
[10] = Cell viability assay (cytotoxicity); type: cell-based
Source text: as §1, §2

[11] = In vitro release of sirolimus and cilostazol from stent coating; type: physicochemical; settings: single-layer configuration of FIG. 83

CO[C@H]1C[C@@H]2CC[C@@H](C)[C@@](O)(O2)C(=O)C(=O)N2CCCC[C@H]2C(=O)O[C@H]([C@H](C)C[C@@H]2CC[C@@H](O)[C@H](OC)C2)CC(=O)[C@H](C)/C=C(\C)[C@@H](O)[C@@H](OC)C(=O)[C@H](C)C[C@H](C)/C=C/C=C/C=C/1C [rapamycin]
concentration relative to the solubility of sirolimus in water ([1]; 4 mg/ml liquid formulation with PEG 200): about four hundred to about one thousand times higher | drug remaining in the drug coating [2]: ~80%

CC(=O)O[C@H]1C(=O)[C@@]2(C)[C@H]([C@H](OC(=O)c3ccccc3)[C@]3(O)C[C@H](OC(=O)[C@H](O)[C@@H](NC(=O)c4ccccc4)c4ccccc4)C(C)=C1C3(C)C)[C@]1(OC(C)=O)CO[C@@H]1C[C@@H]2O [paclitaxel]
concentration of paclitaxel in a true liquid formulation [3]: up to 2.5 mg/ml | concentration relative to the solubility of paclitaxel in water [3]: about 1000 fold

COc1cc2c(cc1O)CC[C@@H]1[C@@H]2CC[C@]2(C)[C@@H](O)CC[C@@H]12 [Panzem®, 2-methoxyestradiol]
human coronary artery smooth muscle cell survival (MTS assay) [4]: do not reduce human coronary artery smooth muscle cell survival | effect of the added agent on the anti-proliferative rapamycin dose response curve [5]: increases the percent of inhibition of rapamycin alone | inhibition of human coronary artery smooth muscle cell proliferation in vitro ([5]; agent alone): extremely effective inhibitor

COC[C@H]1OC(=O)/C(=C\N2CCCC2)C2=C(O)C(=O)C3=C([C@H](OC(C)=O)C[C@]4(C)C(=O)CC[C@@H]34)[C@]21C [PX-867]
inhibition of coronary artery smooth muscle cell proliferation ([6]; PX867 alone, concentration of about 10^−6): close to one hundred percent inhibition | combination effect with sirolimus on percent inhibition ([6]; PX-867 15-240 nM with various concentrations of sirolimus): strong synergistic effect between PX-867 and sirolimus

COc1c(C)c2c(c(O)c1C/C=C(\C)CCC(=O)O)C(=O)OC2 [mycophenolic acid]
effect of the added agent on the anti-proliferative rapamycin dose response curve [7]: potentiates the anti-proliferative activity of rapamycin

CO[C@H]1C[C@@H]2CC[C@@H](C)[C@@](O)(O2)C(=O)C(=O)N2CCCC[C@H]2C(=O)O[C@H]([C@H](C)C[C@@H]2CC[C@@H](OC(=O)C(C)(CO)CO)[C@H](OC)C2)CC(=O)[C@H](C)/C=C(\C)[C@@H](O)[C@@H](OC)C(=O)[C@H](C)C[C@H](C)/C=C/C=C/C=C/1C [CCI-779]
concentration in the final solution (HPLC assay) ([1]; ethanol, Vitamin E TPGS and water, ethanol less than two percent): 15000 µg/mL

CC(/C=C/C(=O)NO)=C\[C@@H](C)C(=O)c1ccc(N(C)C)cc1 [trichostatin A]
pIC50 [8]: ~8.22 | anti-proliferative IC50's [9]: low nM range

COc1cc([C@@H]2c3cc4c(cc3[C@@H](O[C@@H]3O[C@@H]5CO[C@@H](C)O[C@H]5[C@H](O)[C@H]3O)[C@H]3COC(=O)[C@H]23)OCO4)cc(OC)c1O [etoposide]
cytotoxicity in cell viability assay ([10]; at concentrations up to ten micromolar): non-cytotoxic | effect of the added agent on the anti-proliferative rapamycin dose response curve [7]: potentiate the anti-proliferative activity of rapamycin

O=C1CCc2cc(OCCCCc3nnnn3C3CCCCC3)ccc2N1 [cilostazol, 6[4-(1-cyclohexyl-1H-tetrazol-5-yl)-butoxy]-3,4-dihydro-2-(1H)-quinolinone]
drug remaining in the drug coating [2]: ~80% | in vitro release from the coating [11]: ~35%

CC[C@@]1(O)C(=O)OCc2c1cc1n(c2=O)Cc2cc3c(CN(C)C)c(O)ccc3nc2-1 [topotecan]
cytotoxicity in cell viability assay ([10]; at concentrations up to one micromolar): non-cytotoxic | effect of the added agent on the anti-proliferative rapamycin dose response curve [5]: potentiate the anti-proliferative activity of rapamycin

Nc1nc(Cl)nc2c1ncn2[C@H]1C[C@H](O)[C@@H](CO)O1 [Cladribine, 2-chlorodeoxyadenosine]
effect of the added agent on the anti-proliferative rapamycin dose response curve [7]: potentiate the anti-proliferative activity of rapamycin
